# Values quoted from earlier work in article PMC6245954 (European journal of medicinal chemistry, 2018).
# How the values were obtained:
# [1] = system: two prostate cancer xenografts; settings: even at the highest dose (0.73 mmol/kg); cited from earlier work
# [2] = in words; cited from earlier work
# prostate cancer = settings: cited from earlier work
smiles,measurement,setting,value
"COc1cc(-c2oc3ccccc3c(=O)c2O)cc(OC)c1OC [Compd 3, 3′,4′,5′-trimethoxyflavonol]",in vivo antitumor efficacy,[1],very moderate
same,bioavailability,[2],poor bioavailability
same,fold greater potency than quercetin (1) and fisetin (2),prostate cancer,5- to 16 fold
